One compound from PMC4669759 (Cell Death & Disease, 2015) can be followed below.

One experiment deals with H23 cells. Briefly: Navitoclax / A-1210477 combination cell viability, H23 cells. The following applies: H23, 48 h. In kind it is cell-based, human. As to the method:
Figure 6 A-1210477 synergizes with navitoclax to kill hematological and solid tumor cell lines. BxPC-3, EJ-1, H23, and OPM-2 cells were treated with increasing concentrations of navitoclax in the presence or absence of increasing concentrations of A-1210477 for 48 h before assessing cell viability. All data points represent the means of triplicate experiments, with error bars indicating the S.E.M. TEXT PRINTED IN THE PICTURE: A-1210477 + navitoclax: Bliss sum (BxPC-3): 716; Bliss sum (EJ-1): 464; Bliss sum (H23): 76; Bliss sum (OPM-2): 946 DOUBTS OF THE COPYIST ABOUT THIS PICTURE: The Bliss sums apply to the combination of A-1210477 and navitoclax. The picture prints the two names separately (legend heading and axis title), not as one joined label.
(§1) Adherent cell lines were seeded at 50 000 cells per well in 96-well plates and treated for 48 h with compounds diluted in half-log steps starting at 30 μM and ending at 0.001 μM. Multiple myeloma cell lines were seeded at 15 000–20 000 cells per well and treated similarly. Effects on proliferation and viability were determined using CellTiter-Glo reagent from Promega (Madison, WI, USA) according to the manufacturer's instructions. IC50 values were determined by non-linear regression analysis of the concentration response data.

The target in the next experiment is T1, BCL-XL–BAD complexes (Homo sapiens, UniProt Q07817).
T1 construct: expressed in transfected cells; host or cells: T-REx-293, bicistronic expression module integrated at a single genomic site
Briefly: Live cell redistribution assay, eGFP-BCL-XL and mCherry-BAD, T-REx-293 cells. In kind it is cell-based. The following applies: 10 μM, 300 min. The source says:
To further rule out potential artifacts associated with lysate detergents that can influence interactions between BCL-2 family proteins,[47] we employed a recently described real-time imaging method to assess the effects on BCL-2 family complexes in live cells.[48] Briefly, interacting pairs of BCL-2 family proteins are expressed as fluorescent fusion proteins at stoichiometric levels from a bicistronic expression module integrated into a single site of the genome in T-REx-293 cells. […]
Figure 3 A-1210477 inhibits MCL-1-BIM complexes in live cells. […] The decrease in amount of mCherry-BH3 protein localized to the mitochondria was quantified as a function of time as described in the Materials and Methods, normalized to DMSO control, and fitted to a single exponential decay. Each data point represents the mean change in intensity calculated from 10 fields of view, with error bars indicating the S.E.M. (b) T-REx-293 cells stably expressing eGFP-MCL-1(3B) and mCherry-BIMS(2A)ΔC were treated with 50 μM ABT-737 or increasing concentrations (1–25 μM) A-1210477 for 100 min. The decrease in amount of mCherry-BIMS(2A)ΔC localized to the mitochondria was quantified as in panel (a). (c) Representative fluorescence microscopic images of T-REx-293 cells stably expressing eGFP-BCL-2 family and interacting mCherry-BH3-only proteins before and after 300 min of treatment with 10 μM A-1210477 or (d) ABT-737. […]

A further experiment deals with BCL-XL (Homo sapiens, UniProt Q07817). Nature of the experiment: TR-FRET binding affinity assay, BCL-XL. As to the method: TR-FRET-binding affinity assays were performed for BCL-2, BCL-XL, and MCL-1 in 4.52 mM monobasic potassium phosphate, 15.48 mM dibasic potassium phosphate, 1 mM sodium EDTA, 0.05% Pluronic F-68 detergent, 50 mM sodium chloride, and 1 mM DTT (pH 7.5) as described previously for BCL-XL.[6] For MCL-1 assays, GST-tagged MCL-1 (1 nM) was mixed with 100 nM f-Bak, 1 nM Tb-labeled anti-GST antibody, and compound at room temperature (RT) for 60 min. Fluorescence was measured on an Envision plate reader (Perkin-Elmer, Waltham, MA, USA) using a 340/35 nm excitation filter and 520/525 (f-Bak) and 495/510 nm (Tb-labeled anti-GST antibody) emission filters.

A further experiment relates to H2110 cells. Nature of the experiment: Cell viability, H2110 cells. Type of experiment: cell-based, human. Here is the method:
Figure 5 A-1210477 kills MCL-1-dependent NSCLC cancer cell lines. NSCLC cell lines (a) H2110 or (c) H23 were transfected with a construct expressing the MCL1 CDS tagged with a Flag epitope or empty control vector. These cells were subsequently transfected with siRNAs targeting the MCL1 CDS, the MCL1 3′ UTRa or UTRb, or a scrambled control sequence. Cell viability was assessed 72 h later with MCL-1 and Flag immunoblots performed in parallel. (b) H2110 or (d) H23 cells were treated with increasing concentrations of A-1210477 for 72 h before assessing cell viability.
as §1

The structures appear in SMILES notation.

T1 sequence (Q07817 whole entry, one chain of several): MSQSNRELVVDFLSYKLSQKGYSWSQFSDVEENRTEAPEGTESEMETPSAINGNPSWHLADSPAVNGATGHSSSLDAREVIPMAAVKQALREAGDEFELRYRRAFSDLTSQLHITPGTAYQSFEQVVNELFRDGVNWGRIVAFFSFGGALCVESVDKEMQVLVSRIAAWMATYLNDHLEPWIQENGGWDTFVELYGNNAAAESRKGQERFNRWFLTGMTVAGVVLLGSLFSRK
Sequence of BCL-XL (Q07817 whole entry): as the sequence (Q07817 whole entry, one chain of several) above

As to `Cc1nn(C)c(COc2ccc(N3CCN(S(=O)(=O)N(C)C)CC3)cc2)c1-c1cccc2c(CCCOc3cccc4ccccc34)c(C(=O)O)n(CCN3CCOCC3)c12` [A-1210477], the potentiation of navitoclax result with H23 cells is given as “substantially shifted the dose–response curve of navitoclax”. Besides, at BCL-XL–BAD complexes, the “redistribution of mCherry-BAD associated with BCL-XL” value is recorded as “no effect”. On BCL-XL, the Ki – broadly, a dissociation constant, usually derived from enzyme kinetics or from competition with a known ligand – was above 0.66 µM. Further, the IC50 (usually the point on the concentration scale where inhibition reaches its midpoint) with H2110 cells (H2110) was below 10 µM. Also, the EC50 (in general, the midpoint of the concentration-response curve) in the experiment on H2110 cells (H2110, 72 h) was found to be 5.3 µM.
